Columns and labels:
Type in all cases: in vivo, rat (Sprague-Dawley)
[1] = tested on: rats' lenses (opacity); assay: Opacity distribution of lenses in sodium selenite-induced aged rats (ImageJ); conditions: 2 or 10 mg/kg/d by gavage once daily for 6 months, vs non-supplement group
Method: Ten-day-old suckling rats (Sprague-Dawley, SD) were maintained under the barrier conditions in a temperature-controlled environment and fed a commercial mouse chow. All rat pups received a single subcutaneous injection of sodium selenite (20 μmol/kg body weight) on postpartum day 11. The opacity distribution (by surface plot and plot profile) of the rats' lenses were determined from the captured images by ImageJ analysis software after feeding 7 days. Testing opacity distribution aimed to show whether the formation of age-related lens degeneration is successful. The rats were then injected of sodium selenite every two weeks. And then these induced successfully rats were fed a commercial mouse chow for 15 months if succeeding. Then these induced successfully rats were randomly divided into three groups: (1) non-supplement group (Group 1, Con, n=10); (2) L-ergothioncine supplement group with low dosage (Group 2, L-ergothioneine, 2 mg/kg/d, n=10); (3) L-ergothioncine supplement group with high dosage (Group 3, L-ergothioneine, 10 mg/kg/d, n=10). All rats were administered L-ergothioneine for once daily by gavage in normal saline solution for 6 months. The opacity distribution (by surface plot and plot profile) of the rats' lenses were observed from the captured images by ImageJ analysis software at the end of this study.

[2] = tested on: Nrf2; assay: Nrf2 mRNA level in LECs by real-time PCR after 6 months of supplementation; conditions: FIG. 2
Method: Ten-day-old suckling rats (Sprague-Dawley, SD) were maintained under the barrier conditions in a temperature-controlled environment and fed a commercial mouse chow. All rat pups received a single subcutaneous injection of sodium selenite (20 μmol/kg body weight) on postpartum day 11. The opacity distribution (by surface plot and plot profile) of the rats' lenses were determined from the captured images by ImageJ analysis software after feeding 7 days. Testing opacity distribution aimed to show whether the formation of age-related lens degeneration is successful. The rats were then injected of sodium selenite every two weeks. And then these induced successfully rats were fed a commercial mouse chow for 15 months if succeeding. […]
Nrf2 dependent antioxidant protection system plays a crucial role in scavenging ROS generated during various biochemical reactions. […] Real-time PCR was measured and performed with the following primers: Nrf2 forward 5′-[…]-3′. RNA samples were reverse-transcribed to cDNA and subjected to quantitative PCR, performed with a Light Cycler 96 Real-Time PCR System using the AceQ qPCR SYBR Green Master Mix. […]

[3] = tested on: intracellular chronic reactive oxygen species (ROS) in lens epithelial cells (LEC); assay: Cytosolic ROS level in isolated rat lenses (H2-DCFH-DA staining) after 6 months of supplementation; conditions: FIG. 1
Method: Ten-day-old suckling rats (Sprague-Dawley, SD) were maintained under the barrier conditions in a temperature-controlled environment and fed a commercial mouse chow. All rat pups received a single subcutaneous injection of sodium selenite (20 μmol/kg body weight) on postpartum day 11. The opacity distribution (by surface plot and plot profile) of the rats' lenses were determined from the captured images by ImageJ analysis software after feeding 7 days. Testing opacity distribution aimed to show whether the formation of age-related lens degeneration is successful. The rats were then injected of sodium selenite every two weeks. And then these induced successfully rats were fed a commercial mouse chow for 15 months if succeeding.
Then these induced successfully rats were randomly divided into three groups: (1) non-supplement group (Group 1, Con, n=10); (2) L-ergothioncine supplement group with low dosage (Group 2, L-ergothioneine, 2 mg/kg/d, n=10); (3) L-ergothioncine supplement group with high dosage (Group 3, L-ergothioneine, 10 mg/kg/d, n=10). All rats were administered L-ergothioneine for once daily by gavage in normal saline solution for 6 months. The opacity distribution (by surface plot and plot profile) of the rats' lenses were observed from the captured images by ImageJ analysis software at the end of this study. […]

C[N+](C)(C)[C@@H](Cc1c[nH]c(=S)[nH]1)C(=O)[O-] [ergothioneine, L-ergothioneine]
opacity of lens (opacity distribution by surface plot and plot profile) [1]: effectively ameliorate or alleviate the opacity of lens | increase of Nrf2 mRNA level in LECs over placebo ([2]; high-dose group, 10 mg/kg/d by gavage for 6 months): around 180% | increase of Nrf2 mRNA level in LECs compared to placebo ([2]; low-dose group, 2 mg/kg/d by gavage for 6 months): ~50% | efficacy in ROS scavenging, high-dose group compared to low-dose group ([3]; 10 mg/kg/d vs 2 mg/kg/d by gavage for 6 months): approximately double | reduction of intracellular chronic ROS levels in LEC compared to the non-supplementation group ([3]; 2 and 10 mg/kg/d by gavage for 6 months): more than 25%
